# How the values were obtained:
# [1] = target: Hepatocyte growth factor receptor (Homo sapiens, UniProt P08581); assay: Inhibition of purified recombinant MET kinase domain (unknown origin) using biotin as substrate preincubated for 5 mins followed by substrate addition and measured after 30 to 60 mins in presence of ATP by HTRF assay
# [2] = Antiproliferative activity against human NIH-H460 cells at 10 uM incubated for 72 hrs by MTT assay relative to control; format: functional; conditions: NIH-H460, 72 h
# [3] = target: Vascular endothelial growth factor receptor 2 (Homo sapiens, UniProt P35968); assay: Inhibition of purified recombinant VEGFR2 kinase domain (unknown origin) using biotin as substrate preincubated for 5 mins followed by substrate addition and measured after 30 to 60 mins in presence of ATP by HTRF assay
# Chain of Vascular endothelial growth factor receptor 2 (P35968 whole entry, the tested form may be a part): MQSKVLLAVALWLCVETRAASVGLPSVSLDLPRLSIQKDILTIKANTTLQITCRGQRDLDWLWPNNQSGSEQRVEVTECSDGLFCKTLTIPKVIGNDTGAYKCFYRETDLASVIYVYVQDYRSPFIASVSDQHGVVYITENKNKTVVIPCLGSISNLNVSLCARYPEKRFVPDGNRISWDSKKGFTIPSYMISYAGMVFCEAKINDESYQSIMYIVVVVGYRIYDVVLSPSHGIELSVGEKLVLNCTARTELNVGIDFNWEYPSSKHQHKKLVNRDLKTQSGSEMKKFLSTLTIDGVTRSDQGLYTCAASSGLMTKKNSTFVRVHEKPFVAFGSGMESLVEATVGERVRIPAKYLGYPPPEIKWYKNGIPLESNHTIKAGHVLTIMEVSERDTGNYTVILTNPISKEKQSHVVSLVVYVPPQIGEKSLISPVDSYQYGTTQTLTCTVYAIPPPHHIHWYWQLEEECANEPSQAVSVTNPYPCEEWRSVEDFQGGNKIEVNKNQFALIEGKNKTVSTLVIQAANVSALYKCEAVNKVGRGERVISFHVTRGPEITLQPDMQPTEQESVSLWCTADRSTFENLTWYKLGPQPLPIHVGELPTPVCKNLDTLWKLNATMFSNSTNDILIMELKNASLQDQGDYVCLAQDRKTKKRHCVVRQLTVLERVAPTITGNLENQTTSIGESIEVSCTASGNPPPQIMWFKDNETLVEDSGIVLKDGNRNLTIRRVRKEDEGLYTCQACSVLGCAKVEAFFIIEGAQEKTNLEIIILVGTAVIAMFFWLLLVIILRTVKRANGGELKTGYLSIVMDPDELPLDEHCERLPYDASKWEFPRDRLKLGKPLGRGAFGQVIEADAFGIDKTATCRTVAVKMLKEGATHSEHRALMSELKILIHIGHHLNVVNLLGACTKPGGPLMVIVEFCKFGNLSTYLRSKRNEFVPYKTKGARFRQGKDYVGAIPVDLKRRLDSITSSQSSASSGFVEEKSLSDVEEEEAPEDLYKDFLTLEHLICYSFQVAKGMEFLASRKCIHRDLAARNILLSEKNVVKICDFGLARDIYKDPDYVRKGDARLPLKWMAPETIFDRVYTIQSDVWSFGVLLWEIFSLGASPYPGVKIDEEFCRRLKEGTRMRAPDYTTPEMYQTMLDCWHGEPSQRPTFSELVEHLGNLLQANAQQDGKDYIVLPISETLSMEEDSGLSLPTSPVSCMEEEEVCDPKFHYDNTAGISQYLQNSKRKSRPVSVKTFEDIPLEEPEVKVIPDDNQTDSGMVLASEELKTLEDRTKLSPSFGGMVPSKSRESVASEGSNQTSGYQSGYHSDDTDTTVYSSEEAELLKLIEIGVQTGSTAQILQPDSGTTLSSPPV
# MKN-45 = assay: Antiproliferative activity against human MKN45 cells at 10 uM incubated for 72 hrs by MTT assay relative to control; format: functional; conditions: MKN-45, 72 h
# HT-29 = assay: Antiproliferative activity against human HT-29 cells at 10 uM incubated for 72 hrs by MTT assay relative to control; format: functional; conditions: HT-29, 72 h
# in vitro = conditions: human, liver microsomes
# Homo sapiens = organism: Homo sapiens; assay: Selectivity index, ratio of IC50 for purified recombinant VEGFR2 kinase domain (unknown origin) to IC50 for purified recombinant MET kinase domain (unknown origin)
# [4] = Volume of distribution in Sprague-Dawley rat at 5.0 mg/kg, ig measured for 15 min to 72 hrs by LC-MS/MS analysis; format: ADME, organism-based; conditions: in vivo, po
# [5] = Clearance in Sprague-Dawley rat at 1.0 mg/kg, iv measured for 5 min to 72 hrs by LC-MS/MS analysis; format: ADME, organism-based; conditions: in vivo
# [6] = Clearance in Sprague-Dawley rat at 5.0 mg/kg, ig measured for 15 min to 72 hrs by LC-MS/MS analysis; format: ADME, organism-based; conditions: in vivo, po
# [7] = Volume of distribution in Sprague-Dawley rat at 1.0 mg/kg, iv measured for 5 min to 72 hrs by LC-MS/MS analysis; format: ADME, organism-based; conditions: in vivo
# [8] = Cmax in Sprague-Dawley rat at 5.0 mg/kg, ig measured for 15 min to 72 hrs by LC-MS/MS analysis; format: ADME, organism-based; set-up: dose 5 mg/kg, route intragastric; conditions: in vivo, po
# [9] = Mean residence time in Sprague-Dawley rat at 1.0 mg/kg, iv measured for 5 min to 72 hrs by LC-MS/MS analysis; format: ADME, organism-based; conditions: in vivo
# [10] = Half life in Sprague-Dawley rat at 5.0 mg/kg, ig measured for 15 min to 72 hrs by LC-MS/MS analysis; format: ADME, organism-based; conditions: in vivo, po
# [11] = Tmax in Sprague-Dawley rat at 5.0 mg/kg, ig measured for 15 min to 72 hrs by LC-MS/MS analysis; format: ADME, organism-based; conditions: in vivo, po
# [12] = Half life in Sprague-Dawley rat at 1.0 mg/kg, iv measured for 5 min to 72 hrs by LC-MS/MS analysis; format: ADME, organism-based; conditions: in vivo
# [13] = Mean residence time in Sprague-Dawley rat at 5.0 mg/kg, ig measured for 15 min to 72 hrs by LC-MS/MS analysis; format: ADME, organism-based; conditions: in vivo, po
# [14] = AUC (0 to infinity) in Sprague-Dawley rat at 5.0 mg/kg, ig measured for 15 min to 72 hrs by LC-MS/MS analysis; format: ADME, organism-based; set-up: dose 5 mg/kg, time infinity, route intragastric; conditions: in vivo, po
# [15] = Oral bioavailability in Sprague-Dawley rat at 5.0 mg/kg, ig measured for 15 min to 72 hrs by LC-MS/MS analysis; format: ADME, organism-based; conditions: in vivo
# [16] = Cmax in Sprague-Dawley rat at 1.0 mg/kg, iv measured for 5 min to 72 hrs by LC-MS/MS analysis; format: ADME, organism-based; set-up: dose 1 mg/kg, route intravenous; conditions: in vivo
# [17] = AUC (0 to infinity) in Sprague-Dawley rat at 1.0 mg/kg, iv measured for 5 min to 72 hrs by LC-MS/MS analysis; format: ADME, organism-based; set-up: dose 1 mg/kg, time infinity, route intravenous; conditions: in vivo
# [18] = Tmax in Sprague-Dawley rat at 10 mg/kg, ig measured for 15 min to 72 hrs by LC-MS/MS analysis; format: ADME, organism-based; conditions: in vivo, po
# [19] = AUC (0 to infinity) in Sprague-Dawley rat at 2.5 mg/kg, iv measured for 5 min to 72 hrs by LC-MS/MS analysis; format: ADME, organism-based; set-up: dose 2.5 mg/kg, route intravenous, time infinity; conditions: in vivo
# [20] = Volume of distribution in Sprague-Dawley rat at 2.5 mg/kg, iv measured for 5 min to 72 hrs by LC-MS/MS analysis; format: ADME, organism-based; conditions: in vivo
# [21] = Mean residence time in Sprague-Dawley rat at 10 mg/kg, ig measured for 15 min to 72 hrs by LC-MS/MS analysis; format: ADME, organism-based; conditions: in vivo, po
# [22] = Half life in Sprague-Dawley rat at 10 mg/kg, ig measured for 15 min to 72 hrs by LC-MS/MS analysis; format: ADME, organism-based; conditions: in vivo, po
# [23] = Clearance in Sprague-Dawley rat at 10 mg/kg, ig measured for 15 min to 72 hrs by LC-MS/MS analysis; format: ADME, organism-based; conditions: in vivo, po
# [24] = Tmax in Sprague-Dawley rat at 2.5 mg/kg, iv measured for 5 min to 72 hrs by LC-MS/MS analysis; format: ADME, organism-based; conditions: in vivo
# [25] = Half life in Sprague-Dawley rat at 2.5 mg/kg, iv measured for 5 min to 72 hrs by LC-MS/MS analysis; format: ADME, organism-based; conditions: in vivo
# [26] = Cmax in Sprague-Dawley rat at 10 mg/kg, ig measured for 15 min to 72 hrs by LC-MS/MS analysis; format: ADME, organism-based; set-up: dose 10 mg/kg, route intragastric; conditions: in vivo, po
# [27] = Mean residence time in Sprague-Dawley rat at 2.5 mg/kg, iv measured for 5 min to 72 hrs by LC-MS/MS analysis; format: ADME, organism-based; conditions: in vivo
# [28] = AUC (0 to infinity) in Sprague-Dawley rat at 10 mg/kg, ig measured for 15 min to 72 hrs by LC-MS/MS analysis; format: ADME, organism-based; set-up: dose 10 mg/kg, time infinity, route intragastric; conditions: in vivo, po
# [29] = Volume of distribution in Sprague-Dawley rat at 10 mg/kg, ig measured for 15 min to 72 hrs by LC-MS/MS analysis; format: ADME, organism-based; conditions: in vivo, po
# [30] = Clearance in Sprague-Dawley rat at 2.5 mg/kg, iv measured for 5 min to 72 hrs by LC-MS/MS analysis; format: ADME, organism-based; conditions: in vivo
# [31] = Cmax in Sprague-Dawley rat at 2.5 mg/kg, iv measured for 5 min to 72 hrs by LC-MS/MS analysis; format: ADME, organism-based; set-up: dose 2.5 mg/kg, route intravenous; conditions: in vivo
# [32] = Oral bioavailability in Sprague-Dawley rat at 10 mg/kg, ig measured for 15 min to 72 hrs by LC-MS/MS analysis; format: ADME, organism-based; conditions: in vivo
# Chain of Hepatocyte growth factor receptor (P08581 whole entry, the tested form may be a part): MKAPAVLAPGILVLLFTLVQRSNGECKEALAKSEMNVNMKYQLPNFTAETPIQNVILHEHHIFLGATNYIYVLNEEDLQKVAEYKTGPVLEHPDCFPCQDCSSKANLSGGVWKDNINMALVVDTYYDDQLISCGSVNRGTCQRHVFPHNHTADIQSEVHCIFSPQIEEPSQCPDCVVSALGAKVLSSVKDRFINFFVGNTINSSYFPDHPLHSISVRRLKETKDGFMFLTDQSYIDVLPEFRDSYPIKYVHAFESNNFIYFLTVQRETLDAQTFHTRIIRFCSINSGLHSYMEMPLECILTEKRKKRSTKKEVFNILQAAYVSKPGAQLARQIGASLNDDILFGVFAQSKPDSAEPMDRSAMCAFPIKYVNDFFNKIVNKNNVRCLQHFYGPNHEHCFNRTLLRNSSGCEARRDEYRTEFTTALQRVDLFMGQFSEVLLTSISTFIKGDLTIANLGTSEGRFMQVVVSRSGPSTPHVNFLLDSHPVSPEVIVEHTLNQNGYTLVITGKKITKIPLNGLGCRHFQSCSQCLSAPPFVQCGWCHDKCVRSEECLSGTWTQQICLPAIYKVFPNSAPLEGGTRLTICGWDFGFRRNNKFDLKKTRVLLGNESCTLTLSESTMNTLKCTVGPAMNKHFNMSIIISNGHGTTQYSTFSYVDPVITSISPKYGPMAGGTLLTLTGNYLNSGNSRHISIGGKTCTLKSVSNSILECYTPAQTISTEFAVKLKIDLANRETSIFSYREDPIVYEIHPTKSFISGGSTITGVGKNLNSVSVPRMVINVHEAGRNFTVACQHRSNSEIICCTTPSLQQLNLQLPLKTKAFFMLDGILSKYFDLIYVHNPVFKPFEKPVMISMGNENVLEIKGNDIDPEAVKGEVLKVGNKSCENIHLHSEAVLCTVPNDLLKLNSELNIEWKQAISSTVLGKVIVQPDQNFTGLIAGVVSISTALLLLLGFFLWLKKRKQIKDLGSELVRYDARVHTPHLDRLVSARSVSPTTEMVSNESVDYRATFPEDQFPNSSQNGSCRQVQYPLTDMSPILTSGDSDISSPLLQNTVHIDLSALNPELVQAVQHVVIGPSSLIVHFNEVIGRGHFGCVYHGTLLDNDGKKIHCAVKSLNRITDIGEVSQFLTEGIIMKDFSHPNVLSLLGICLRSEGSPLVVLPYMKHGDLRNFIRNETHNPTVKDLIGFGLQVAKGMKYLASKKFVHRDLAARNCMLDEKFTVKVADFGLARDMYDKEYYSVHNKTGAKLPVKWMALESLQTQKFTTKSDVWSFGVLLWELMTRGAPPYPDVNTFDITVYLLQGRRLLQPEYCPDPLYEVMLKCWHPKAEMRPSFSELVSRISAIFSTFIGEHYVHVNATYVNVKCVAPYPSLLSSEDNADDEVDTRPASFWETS
SMILES,IC50 [1] [µM],inhibition at 10 µM [2] [%],IC50 [3] [µM],inhibition at 10 µM (MKN-45) [%],inhibition at 10 µM (HT-29) [%],half-life (in vitro) [h],other results
O=C(Nc1cc(Oc2ccc(Nc3nccc4[nH]cc(-c5ccc(F)cc5)c(=O)c34)cc2F)ccn1)C1CCC1,0.024,43.6,0.0612,52.8,46,–,–
CC(=O)Nc1cc(Oc2ccc(Nc3nccc4[nH]cc(-c5ccc(F)cc5)c(=O)c34)cc2F)ccn1,0.0214,58.2,0.0381,77.1,36.8,–,–
COc1cc2nccc(Oc3ccc(NC(=O)C4(C(=O)Nc5ccc(F)cc5)CC4)cc3)c2cc1OC [CABOZANTINIB],–,54.8,–,49.1,29,–,–
O=C(Nc1cc(Oc2ccc(Nc3nccc4c3c(=O)c(-c3ccc(F)cc3)cn4CCO)cc2F)ccn1)C1CC1,0.0338,52.1,10.5,41.8,3.5,–,–
CC(O)C(=O)Nc1cc(Oc2ccc(Nc3nccc4[nH]cc(-c5ccc(F)cc5)c(=O)c34)cc2F)ccn1 (configuration not stated),0.0118,56,0.289,67.3,47.8,4.15,–
CCCC(=O)Nc1cc(Oc2ccc(Nc3nccc4[nH]cc(-c5ccc(F)cc5)c(=O)c34)cc2F)ccn1,0.0148,49.7,0.0194,64.6,23.5,–,–
CC(C)C(=O)Nc1cc(Oc2ccc(Nc3nccc4[nH]cc(-c5ccc(F)cc5)c(=O)c34)cc2F)ccn1,0.0177,84.6,0.23,95.4,83.4,–,–
CC(C)(O)C(=O)Nc1cc(Oc2ccc(Nc3nccc4[nH]cc(-c5ccc(F)cc5)c(=O)c34)cc2F)ccn1,0.035,54.3,> 3,57.8,-2.9,–,Ratio IC50 (Homo sapiens): > 85.7
O=C(Nc1cc(Oc2ccc(Nc3nccc4[nH]cc(-c5ccc(F)cc5)c(=O)c34)cc2F)ccn1)C1CCCCC1,0.0098,72.1,> 3,55.2,8.7,1.34,Ratio IC50 (Homo sapiens): > 306
CC(C)(O)Cn1cc(-c2ccc(F)cc2)c(=O)c2c(Nc3ccc(Oc4ccnc(NC(=O)C5CC5)c4)c(F)c3)nccc21,0.0259,67.4,> 30,44.3,-2.6,–,–
O=C(Nc1cc(Oc2ccc(Nc3nccc4[nH]cc(-c5ccc(F)cc5)c(=O)c34)cc2F)ccn1)C1CC1,0.0081,54.6,0.0088,81.8,25.5,13.2,Vd [4]: 1.1 L/kg; clearance [5]: 1.33 mL/min/kg; CL/F [6]: 1.67 mL/min/kg; Vd [7]: 0.7 L/kg; Cmax [8]: 2700 ng/mL; MRT [9]: 8.5 h; half-life [10]: 6.4 h; Tmax [11]: 7.3 h; half-life [12]: 6.8 h; MRT [13]: 11.4 h; AUC(0-inf) [14]: 42200 ng·h/mL; bioavailability [15]: 63%; Cmax [16]: 1900 ng/mL; AUC(0-inf) [17]: 13500 ng·h/mL
CCn1cc(-c2ccc(F)cc2)c(=O)c2c(Nc3ccc(Oc4ccnc(NC(=O)C5CC5)c4)c(F)c3)nccc21,0.0156,11,1.38,31.9,15.8,–,Ratio IC50 (Homo sapiens): 88
O=C(CO)Nc1cc(Oc2ccc(Nc3nccc4[nH]cc(-c5ccc(F)cc5)c(=O)c34)cc2F)ccn1,0.0099,53.6,0.0589,63,18.5,7.23,–
CCC(=O)Nc1cc(Oc2ccc(Nc3nccc4[nH]cc(-c5ccc(F)cc5)c(=O)c34)cc2F)ccn1,0.0047,69.7,0.0202,92.1,68.7,2.72,–
Nc1nccc(Oc2ccc(Nc3nccc4[nH]cc(-c5ccc(F)cc5)c(=O)c34)cc2F)c1Cl,0.0098,79.1,0.068,85.7,56.2,3.16,Tmax [18]: 2.7 h; AUC(0-inf) [19]: 4500 ng·h/mL; Vd [20]: 0.4 L/kg; MRT [21]: 3 h; half-life [22]: 1 h; CL/F [23]: 83.3 mL/min/kg; Tmax [24]: 1.8 min; half-life [25]: 0.5 h; Cmax [26]: 600 ng/mL; MRT [27]: 0.3 h; AUC(0-inf) [28]: 2200 ng·h/mL; Vd [29]: 7.5 L/kg; clearance [30]: 10 mL/min/kg; Cmax [31]: 16400 ng/mL; bioavailability [32]: 12%
CCCCC(=O)Nc1cc(Oc2ccc(Nc3nccc4[nH]cc(-c5ccc(F)cc5)c(=O)c34)cc2F)ccn1,0.0147,71.8,0.0269,62.7,-42.2,–,–
CC(C)(C)C(=O)Nc1cc(Oc2ccc(Nc3nccc4[nH]cc(-c5ccc(F)cc5)c(=O)c34)cc2F)ccn1,0.0281,56.7,> 3,62.5,-45.8,–,Ratio IC50 (Homo sapiens): > 107
